Laboratory results: patent US20230128137A1, “BENZO FIVE-MEMBERED CYCLIC COMPOUND” (MEDSHINE DISCOVERY INC., priority 2020, published 2023)
Values joined by “and” are separate entries in the source; they are usually repeats but may differ in a detail not shown here. Identical values can stand only once.

How the values were obtained:
[1] = biological target: T1, Bcl-2 (Homo sapiens, UniProt P10415); test: HTRF competition test, Bcl-2 with FAM-BAK peptide (enzymology experiment); format: binding; settings: 4 nM Bcl-2 and 100 nM FAM-BAK, read-out: IC50 (nM) for inhibition of Bcl-2 enzyme
T1 construct: Human recombinant Bcl-2 (amino acid 1-207); purchased Reaction Biology Corporation (RBC) APT-11-441; host or cells: E. coli
Protocol: (§1) This experiment was based on the competition between fluorescently-labeled Bak/Bad/Noxa peptides and GST-labeled Bcl family proteins. The fluorescence detection method based on HTRF was to observe the binding degree by using the fluorescence ratio between Tb-labeled anti-GST and FAM-labeled peptides. This peptide binds to the surface of the Bcl family protein pocket, which is essential for its anti-apoptotic function.
(§2) 1.1 Experimental reagents: analysis buffer: 20 mM potassium phosphate, pH 7.5, 50 mM sodium chloride, 1 mM EDTA, 0.005% Tritonx-100 and 1% DMSO.
(§3) 1.2 Probe: 5,6-FAM-peptide
(§4) 1.4 Experimental Conditions:
4 nM Bcl-2 and 100 nM FAM-BAK
(§5) a) The Bcl enzyme reaction solution was prepared in the newly prepared analysis buffer;
(§6) b) the Bcl enzyme reaction solution was provided;
(§7) c) the compound was first prepared into a 100% dimethyl sulfoxide solution, and then the compound solution was mixed with the Bcl enzyme reaction solution using (Echo550; nanoliter range) technology, and co-incubated for 10 minutes;
(§8) d) the FAM peptide solution was added.
(§9) e) the mixed solution was gently stirred in dark and room temperature, and co-cultured for 10 minutes.
(§10) f) Anti-GST solution was added.
(§11) g) The mixed solution was gently stirred in dark and room temperature, and co-cultured for 1 hour.
(§12) h) The HTRF high-frequency fluorescence ratio was tested, and the IC50 values were calculated.

[2] = system: human acute lymphoblastic leukemia cell RS4;11 graft tumor; test: In vivo anti-tumor effect, RS4;11 graft tumor model in BALB/c nude mice; set-up: species or system BALB/c nude mouse; settings: for T/C (relative tumor proliferation rate) / TGI (tumor growth inhibition rate): based on tumor volume on day 32
Protocol: 5.1 Experimental animals: Balb/c nude mice, 32 mice, 7 to 8 weeks old, female;
5.2 tumor cells: human acute lymphoblastic leukemia cell line RS4;11, cultured in a suspension in vitro, and the culture conditions were RPMI-1640 culture medium containing 10% fetal bovine serum, cultured in a 5% CO2 incubator at 37° C. When the cells were in exponential growth period and the saturation was 80% to 90%, the cells were collected and counted;
5.3 cell seeding and grouping: the cells were resuspended in […], and the basement membrane matrigel was added in 1:1, and the mixture was mixed well, and the density was 5×10^7 cells/mL. 0.2 mL of cell suspension (containing 1×10^7 RS4;11 cells) was subcutaneously inoculated on the right back of each mouse, and when the average tumor volume reached about 120 mm^3, the drug was administered randomly according to the tumor volume;
5.4 preparation of the subject: an appropriate amount of compound 2 was weighed respectively, and the solvent formula was 2.5% dimethyl sulfoxide, 5% ethanol, 10% cremophor EL, 20% glucose solution (concentration of 5%), 62.5% water;
5.5 tumor-bearing mice divided into four groups (8 mice in each group) were given blank solvent, compound 2 (12.5 mpk, QD), compound 2 (25 mpk, QD) and compound 2 (50 mpk, QD), respectively;
5.6 tumor measurement and experimental indicators:
tumor diameters were measured with vernier calipers two times a week. The calculation formula of tumor volume is: V=0.5×a×b^2, a represents the long diameter of the tumor, and b represents the short diameter of the tumor. The tumor inhibition efficacy of the compounds was evaluated by TGI (%) or relative tumor proliferation rate T/C (%).
Relative tumor proliferation rate T/C %=TRTV/CRTV×100% (TRTV: RTV in the treatment group; CRTV: RTV in the negative control group). The relative tumor volume (RTV) is calculated according to the results of tumor measurement, and the formula is RTV=Vt/V0, where V0 is the tumor volume measured at the time of group administration (i.e., D0), and Vt is the tumor volume measured at a certain measurement, TRTV and CRTV were taken on the same day.
TGI (%), reflecting the tumor growth inhibition rate. The formula for calculating the tumor inhibition efficacy TGI is: […]

[3] = biological target: T2, Bcl-xL (Homo sapiens, UniProt Q07817); test: HTRF competition test, Bcl-xL with FAM-Bad peptide (enzymology experiment); format: binding; settings: 3 nM Bcl-xL and 40 nM FAM-Bad, read-out: IC50 (nM) for inhibition of Bcl-xL enzyme
T2 construct: Human recombinant Bcl-xL (amino acid 1-209); purchased Reaction Biology Corporation (RBC) APT-11-442; host or cells: E. coli
Protocol: as §1, §2, §3, §4
3 nM Bcl-xL and 40 nM FAM-Bad
as §5, §6, §7, §8, §9, §10, §11, §12

T1 sequence (P10415 1-207): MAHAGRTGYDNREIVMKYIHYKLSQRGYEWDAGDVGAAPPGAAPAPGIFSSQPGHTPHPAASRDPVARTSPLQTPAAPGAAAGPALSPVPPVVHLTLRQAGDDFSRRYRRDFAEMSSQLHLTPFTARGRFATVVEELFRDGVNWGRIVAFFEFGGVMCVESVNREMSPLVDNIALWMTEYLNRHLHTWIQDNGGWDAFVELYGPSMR
T2 sequence (Q07817 1-209): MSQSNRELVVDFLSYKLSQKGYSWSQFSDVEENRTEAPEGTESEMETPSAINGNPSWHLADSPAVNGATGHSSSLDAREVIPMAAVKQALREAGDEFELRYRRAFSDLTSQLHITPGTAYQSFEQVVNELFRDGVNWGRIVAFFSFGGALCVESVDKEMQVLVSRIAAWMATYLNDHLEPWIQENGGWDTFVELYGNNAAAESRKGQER

With `CC1(C)CCC(CN2CCN(c3ccc(C(=O)NS(=O)(=O)c4cc([N+](=O)[O-])c(NCC5CCOCC5)c5[nH]cnc45)c(Oc4cnc5[nH]ccc5c4)c3)CC2)=C(c2ccc(Cl)cc2)C1` [Compound 2] the IC50 [1] was 1.5 nM, the “animal state during the experiment” value ([2]; 12.5, 25, 50 mpk, QD) was “normal” and the “T/C (relative tumor proliferation rate)” value ([2]; 12.5 mpk, QD) was 22.37%. For the same compound, the “TGI (tumor growth inhibition rate)” value ([2]; 12.5 mpk, QD) was 82.12%, the Tumor volume ([2]; 12.5 mpk, QD, day 1 after administration, mean ± SEM, n = 8) was 114.44 ± 4.91 mm^3 and 114.44 mm^3 and the Tumor volume ([2]; 12.5 mpk, QD, day 4 after administration) was 124.75 ± 10.85 mm^3. The Tumor volume ([2]; 12.5 mpk, QD, day 6 after administration) was 120.60 ± 12.60 mm^3, the Tumor volume ([2]; 12.5 mpk, QD, day 8 after administration) was 124.22 ± 15.25 mm^3 and the Tumor volume ([2]; 12.5 mpk, QD, day 11 after administration) was 126.73 ± 11.57 mm^3. It also gave a Tumor volume ([2]; 12.5 mpk, QD, day 14 after administration) of 145.41 ± 17.58 mm^3, a Tumor volume ([2]; 12.5 mpk, QD, day 18 after administration) of 198.17 ± 38.18 mm^3 and a Tumor volume ([2]; 12.5 mpk, QD, day 21 after administration) of 209.63 ± 39.56 mm^3. For the same compound, the Tumor volume ([2]; 12.5 mpk, QD, day 25 after administration) was 254.52 ± 52.29 mm^3, the Tumor volume ([2]; 12.5 mpk, QD, day 28 after administration) was 306.93 ± 66.01 mm^3 and the Tumor volume ([2]; 12.5 mpk, QD, day 32 after administration, mean ± SEM, n = 8) was 365.13 ± 85.31 mm^3 and 365.13 mm^3. The “T/C (relative tumor proliferation rate)” value ([2]; 25 mpk, QD) was 16.54%, the “TGI (tumor growth inhibition rate)” value ([2]; 25 mpk, QD) was 89.15% and the Tumor volume ([2]; 25 mpk, QD, day 1 after administration, mean ± SEM, n = 8) was 114.50 ± 4.98 mm^3 and 114.50 mm^3. The Tumor volume ([2]; 25 mpk, QD, day 4 after administration) was 99.54 ± 6.66 mm^3, the Tumor volume ([2]; 25 mpk, QD, day 6 after administration) was 106.03 ± 13.15 mm^3 and the Tumor volume ([2]; 25 mpk, QD, day 8 after administration) was 107.66 ± 15.62 mm^3. For the same compound, the Tumor volume ([2]; 25 mpk, QD, day 11 after administration) was 101.57 ± 15.87 mm^3, the Tumor volume ([2]; 25 mpk, QD, day 14 after administration) was 116.52 ± 28.85 mm^3 and the Tumor volume ([2]; 25 mpk, QD, day 18 after administration) was 146.77 ± 44.03 mm^3. The Tumor volume ([2]; 25 mpk, QD, day 21 after administration) was 191.06 ± 69.68 mm^3, the Tumor volume ([2]; 25 mpk, QD, day 25 after administration) was 174.50 ± 58.56 mm^3 and the Tumor volume ([2]; 25 mpk, QD, day 28 after administration) was 206.82 ± 76.64 mm^3. For the same compound, the Tumor volume ([2]; 25 mpk, QD, day 32 after administration, mean ± SEM, n = 8) was 266.63 ± 95.51 mm^3 and 266.63 mm^3, the “T/C (relative tumor proliferation rate)” value ([2]; 50 mpk, QD) was 7.30% and the “TGI (tumor growth inhibition rate)” value ([2]; 50 mpk, QD) was 100.27%. The Tumor volume ([2]; 50 mpk, QD, day 1 after administration, mean ± SEM, n = 8) was 114.18 ± 4.30 mm^3 and 114.18 mm^3, the Tumor volume ([2]; 50 mpk, QD, day 4 after administration) was 95.13 ± 7.43 mm^3 and the Tumor volume ([2]; 50 mpk, QD, day 6 after administration) was 91.16 ± 6.08 mm^3. For the same compound, the Tumor volume ([2]; 50 mpk, QD, day 8 after administration) was 86.91 ± 4.92 mm^3, the Tumor volume ([2]; 50 mpk, QD, day 11 after administration) was 67.64 ± 3.93 mm^3 and the Tumor volume ([2]; 50 mpk, QD, day 14 after administration) was 74.27 ± 6.37 mm^3. For the same compound, the Tumor volume ([2]; 50 mpk, QD, day 18 after administration) was 58.39 ± 6.94 mm^3, the Tumor volume ([2]; 50 mpk, QD, day 21 after administration) was 70.21 ± 8.91 mm^3 and the Tumor volume ([2]; 50 mpk, QD, day 25 after administration) was 75.62 ± 10.30 mm^3. The Tumor volume ([2]; 50 mpk, QD, day 28 after administration) was 78.03 ± 9.52 mm^3, the Tumor volume ([2]; 50 mpk, QD, day 32 after administration, mean ± SEM, n = 8) was 110.37 ± 19.73 mm^3 and 110.37 mm^3 and the “tumor inhibition effect (in words)” value ([2]; three dose groups (12.5, 25, 50 mpk, QD), obvious dose-dependence) was “significant tumor inhibition effect”. It also gave an IC50 [3] of 411 nM.
